According to patent US20230085307A1, “PYRIDAZINONE COMPOUND AND HERBICIDE” (NISSAN CHEMICAL CORPORATION, priority 2019, published 2023):

Columns and labels:
[1] = test system: wild oat; assay: Test Example 4: herbicidal effect by soil treatment (Table 19, symbol I); assay type: in vivo, wild oat (Avena fatua); conditions: amount of applied herbicide 320 g/ha
Procedure, shortened: (§1)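 Scoring uses the grading scale of an earlier test, three weeks post-application. Treatment consists of spraying a diluted emulsion formulation across the surface of sterilized diluvial soil in which seeds are buried near 1.5 cm deep; boxes are kept in a greenhouse between 25° C. and 30° C.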

[2] = test system: barnyard grass; assay: Test Example 5: herbicidal effect by foliage application, plastic box (Table 20, symbol H); assay type: in vivo, barnyard grass (Echinochloa crus-galli); conditions: foliage application, 320 g/ha, evaluated three weeks after application
Procedure, shortened: (§2)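 Post-emergence foliar test in sterilized diluvial soil. Compound applied as water-diluted emulsion at a predetermined rate to 14-day-old plants; evaluation at three weeks.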

[3] = test system: rice flat sedge; assay: Test Example 3: herbicidal effect by foliage application, Wagner pot (Table 18, symbol E); assay type: in vivo, rice flat sedge (Cyperus iria); conditions: amount of applied herbicide 320 g/ha
Procedure, shortened: (§3)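 Plants were sown in alluvial soil held under 0.1–0.5 cm standing water and grown 14 days in a greenhouse at 25–30 °C. An emulsifiable formulation, water-diluted to the set dose, was then sprayed onto the foliage, and effects were scored three weeks later using previously defined criteria.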

[4] = test system: wild oat; assay: Test Example 5: herbicidal effect by foliage application, plastic box (Table 20, symbol I); assay type: in vivo, wild oat (Avena fatua); conditions: foliage application, 320 g/ha, evaluated three weeks after application
Procedure, shortened: as §2

[5] = test system: persian speedwell; assay: Test Example 5: herbicidal effect by foliage application, plastic box (Table 20, symbol R); assay type: in vivo, Persian speedwell (Veronica persica); conditions: foliage application, 320 g/ha, evaluated three weeks after application
Procedure, shortened: as §2

[6] = test system: chickweed; assay: Test Example 4: herbicidal effect by soil treatment (Table 19, symbol P); assay type: in vivo, common chickweed (Stellaria media); conditions: amount of applied herbicide 320 g/ha
Procedure, shortened: as §1

[7] = test system: lambsquarters; assay: Test Example 5: herbicidal effect by foliage application, plastic box (Table 20, symbol O); assay type: in vivo, lambsquarters (Chenopodium album); conditions: foliage application, 320 g/ha, evaluated three weeks after application
Procedure, shortened: as §2

[8] = test system: late watergrass; assay: Test Example 2: herbicidal activity, application during weed generation under submerged conditions (Table 17, symbol A); assay type: in vivo, late watergrass (Echinochloa oryzicola); conditions: AAH 320 g/ha; application during weed generation, submerged conditions
Procedure, shortened: (§4)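 Effect on each weed is rated three weeks post-treatment, using the same scoring criteria as the preceding test. Plants grow from mixed-sown seed in flooded alluvial soil (4 cm water) at 25° C. to 30° C., and are treated at one to two leaves with diluted emulsion dropped onto the water.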

[9] = test system: redroot pigweed; assay: Test Example 4: herbicidal effect by soil treatment (Table 19, symbol N); assay type: in vivo, redroot pigweed (Amaranthus retroflexus); conditions: amount of applied herbicide 320 g/ha
Procedure, shortened: as §1

[10] = test system: southern crabgrass; assay: Test Example 4: herbicidal effect by soil treatment (Table 19, symbol F); assay type: in vivo, southern crabgrass (Digitaria ciliaris); conditions: amount of applied herbicide 320 g/ha
Procedure, shortened: as §1

[11] = test system: Italian ryegrass; assay: Test Example 4: herbicidal effect by soil treatment (Table 19, symbol K); assay type: in vivo, Italian ryegrass (Lolium multiflorum); conditions: amount of applied herbicide 320 g/ha
Procedure, shortened: as §1

[12] = test system: southern crabgrass; assay: Test Example 5: herbicidal effect by foliage application, plastic box (Table 20, symbol F); assay type: in vivo, southern crabgrass (Digitaria ciliaris); conditions: foliage application, 320 g/ha, evaluated three weeks after application
Procedure, shortened: as §2

[13] = test system: redroot pigweed; assay: Test Example 5: herbicidal effect by foliage application, plastic box (Table 20, symbol N); assay type: in vivo, redroot pigweed (Amaranthus retroflexus); conditions: foliage application, 320 g/ha, evaluated three weeks after application
Procedure, shortened: as §2

[14] = test system: barnyard grass; assay: Test Example 3: herbicidal effect by foliage application, Wagner pot (Table 18, symbol H); assay type: in vivo, barnyard grass (Echinochloa crus-galli); conditions: amount of applied herbicide 320 g/ha
Procedure, shortened: as §3

[15] = test system: windgrass; assay: Test Example 5: herbicidal effect by foliage application, plastic box (Table 20, symbol L); assay type: in vivo, windgrass (Apera spica-venti); conditions: foliage application, 320 g/ha, evaluated three weeks after application
Procedure, shortened: as §2

[16] = test system: blackgrass; assay: Test Example 5: herbicidal effect by foliage application, plastic box (Table 20, symbol J); assay type: in vivo, blackgrass (Alopecurus myosuroides); conditions: foliage application, 320 g/ha, evaluated three weeks after application
Procedure, shortened: as §2

[17] = test system: Japanese bulrush; assay: Test Example 2: herbicidal activity, application during weed generation under submerged conditions (Table 17, symbol B); assay type: in vivo, Japanese bulrush (Schoenoplectus juncoides); conditions: AAH 320 g/ha; application during weed generation, submerged conditions
Procedure, shortened: as §4

[18] = test system: velvetleaf; assay: Test Example 4: herbicidal effect by soil treatment (Table 19, symbol M); assay type: in vivo, velvetleaf (Abutilon theophrasti); conditions: amount of applied herbicide 320 g/ha
Procedure, shortened: as §1

[19] = test system: Italian ryegrass; assay: Test Example 5: herbicidal effect by foliage application, plastic box (Table 20, symbol K); assay type: in vivo, Italian ryegrass (Lolium multiflorum); conditions: foliage application, 320 g/ha, evaluated three weeks after application
Procedure, shortened: as §2

[20] = test system: lambsquarters; assay: Test Example 4: herbicidal effect by soil treatment (Table 19, symbol O); assay type: in vivo, lambsquarters (Chenopodium album); conditions: amount of applied herbicide 320 g/ha
Procedure, shortened: as §1

[21] = test system: green foxtail; assay: Test Example 4: herbicidal effect by soil treatment (Table 19, symbol G); assay type: in vivo, green foxtail (Setaria viridis); conditions: amount of applied herbicide 320 g/ha
Procedure, shortened: as §1

[22] = test system: barnyard grass; assay: Test Example 4: herbicidal effect by soil treatment (Table 19, symbol H); assay type: in vivo, barnyard grass (Echinochloa crus-galli); conditions: amount of applied herbicide 320 g/ha
Procedure, shortened: as §1

| SMILES | I: wild oat, herbicidal effect rating [1] | herbicidal effect on H: barnyard grass (criteria 0-5) [2] | herbicidal effect on E: rice flat sedge [3] | herbicidal effect on I: wild oat (criteria 0-5) [4] | herbicidal effect on R: persian speedwell (criteria 0-5) [5] | P: chickweed, herbicidal effect rating [6] | herbicidal effect on O: lambsquarters (criteria 0-5) [7] | herbicidal effect rating, A: late watergrass [8] | N: redroot pigweed, herbicidal effect rating [9] | F: southern crabgrass, herbicidal effect rating [10] | K: Italian ryegrass, herbicidal effect rating [11] | herbicidal effect on F: southern crabgrass (criteria 0-5) [12] | herbicidal effect on N: redroot pigweed (criteria 0-5) [13] | herbicidal effect on H: barnyard grass [14] | herbicidal effect on L: windgrass (criteria 0-5) [15] | herbicidal effect on J: blackgrass (criteria 0-5) [16] | herbicidal effect rating, B: Japanese bulrush [17] | M: velvetleaf, herbicidal effect rating [18] | herbicidal effect on K: Italian ryegrass (criteria 0-5) [19] | O: lambsquarters, herbicidal effect rating [20] | further results |
| --- | --- | --- | --- | --- | --- | --- | --- | --- | --- | --- | --- | --- | --- | --- | --- | --- | --- | --- | --- | --- | --- |
| CCCC(=O)Oc1c(C)nn(C)c(=O)c1-c1c(-c2ccc(Br)cc2)sc2ccc(F)cc12 [2-206] | 0 (Herbicidal rate of 5% or less (almost no effect)) | 5 (Herbicidal rate of 90% or more (almost completely withered)) | 5 (Herbicidal rate of 90% or more (almost completely withered)) | 4 (Herbicidal rate of 70% or more and less than 90%) | 5 (Herbicidal rate of 90% or more (almost completely withered)) | 4 (Herbicidal rate of 70% or more and less than 90%) | 5 (Herbicidal rate of 90% or more (almost completely withered)) | 4 (Herbicidal rate of 70% or more and less than 90%) | 5 (Herbicidal rate of 90% or more (almost completely withered)) | 1 (Herbicidal rate of 5% or more and less than 20%) | 5 (Herbicidal rate of 90% or more (almost completely withered)) | 3 (Herbicidal rate of 40% or more and less than 70%) | 5 (Herbicidal rate of 90% or more (almost completely withered)) | 5 (Herbicidal rate of 90% or more (almost completely withered)) | 4 (Herbicidal rate of 70% or more and less than 90%) | 4 (Herbicidal rate of 70% or more and less than 90%) | 3 (Herbicidal rate of 40% or more and less than 70%) | 2 (Herbicidal rate of 20% or more and less than 40%) | 5 (Herbicidal rate of 90% or more (almost completely withered)) | 4 (Herbicidal rate of 70% or more and less than 90%) | G: green foxtail, herbicidal effect rating [21]: 3 (Herbicidal rate of 40% or more and less than 70%); H: barnyard grass, herbicidal effect rating [22]: 2 (Herbicidal rate of 20% or more and less than 40%) |
| CCc1ccc(-c2sc3ccc(F)cc3c2-c2c(O)c(C)nn(C)c2=O)cc1 [2-207] | 0 (Herbicidal rate of 5% or less (almost no effect)) | 4 (Herbicidal rate of 70% or more and less than 90%) | 5 (Herbicidal rate of 90% or more (almost completely withered)) | 3 (Herbicidal rate of 40% or more and less than 70%) | 5 (Herbicidal rate of 90% or more (almost completely withered)) | 3 (Herbicidal rate of 40% or more and less than 70%) | 5 (Herbicidal rate of 90% or more (almost completely withered)) | 3 (Herbicidal rate of 40% or more and less than 70%) | 5 (Herbicidal rate of 90% or more (almost completely withered)) | 3 (Herbicidal rate of 40% or more and less than 70%) | 4 (Herbicidal rate of 70% or more and less than 90%) | 4 (Herbicidal rate of 70% or more and less than 90%) | 5 (Herbicidal rate of 90% or more (almost completely withered)) | 4 (Herbicidal rate of 70% or more and less than 90%) | 4 (Herbicidal rate of 70% or more and less than 90%) | 4 (Herbicidal rate of 70% or more and less than 90%) | 3 (Herbicidal rate of 40% or more and less than 70%) | 5 (Herbicidal rate of 90% or more (almost completely withered)) | 4 (Herbicidal rate of 70% or more and less than 90%) | 5 (Herbicidal rate of 90% or more (almost completely withered)) | G: green foxtail, herbicidal effect rating [21]: 0 (Herbicidal rate of 5% or less (almost no effect)); H: barnyard grass, herbicidal effect rating [22]: 2 (Herbicidal rate of 20% or more and less than 40%) |
| Cc1nn(C)c(=O)c(-c2c(-c3cccc(OCC(C)C)c3)sc3ccc(F)cc23)c1O [2-221] | 0 (Herbicidal rate of 5% or less (almost no effect)) | 5 (Herbicidal rate of 90% or more (almost completely withered)) | 5 (Herbicidal rate of 90% or more (almost completely withered)) | 5 (Herbicidal rate of 90% or more (almost completely withered)) | 5 (Herbicidal rate of 90% or more (almost completely withered)) | 3 (Herbicidal rate of 40% or more and less than 70%) | 5 (Herbicidal rate of 90% or more (almost completely withered)) | 5 (Herbicidal rate of 90% or more (almost completely withered)) | 5 (Herbicidal rate of 90% or more (almost completely withered)) | 5 (Herbicidal rate of 90% or more (almost completely withered)) | 4 (Herbicidal rate of 70% or more and less than 90%) | 5 (Herbicidal rate of 90% or more (almost completely withered)) | 5 (Herbicidal rate of 90% or more (almost completely withered)) | 5 (Herbicidal rate of 90% or more (almost completely withered)) | 5 (Herbicidal rate of 90% or more (almost completely withered)) | 5 (Herbicidal rate of 90% or more (almost completely withered)) | 3 (Herbicidal rate of 40% or more and less than 70%) | 4 (Herbicidal rate of 70% or more and less than 90%) | 5 (Herbicidal rate of 90% or more (almost completely withered)) | 4 (Herbicidal rate of 70% or more and less than 90%) | G: green foxtail, herbicidal effect rating [21]: 5 (Herbicidal rate of 90% or more (almost completely withered)); H: barnyard grass, herbicidal effect rating [22]: 5 (Herbicidal rate of 90% or more (almost completely withered)) |
